In PubChem BioAssay AID1208 (EPA DSSTox, 2008):
The source made the active and inactive calls.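 The calls were made as follows: active = at least one rat sex group has a carcinogenic potency value and tumor site recorded; inconclusive = only rat studies were judged inadequate by the national testing program; inactive = no potency or tumor site, with negative rat experiments.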

Test system: rat chronic carcinogenicity bioassay, TD50
Test: DSSTox (CPDBAS) Carcinogenic Potency Database Summary Rat Bioassay Results
Settings: for Potency: stronger effect = lower value; for outcome: TD50_Rat_Note: no positive results
Procedure, shortened: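 The activity score maps log10(1/TD50_Rat_mmol) linearly onto 1–100; actives without a computed TD50, such as mixtures, receive 50. Source data are chronic rat carcinogenicity tests, using the most positive experiment for each sex.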

[1] = TargetSites_Rat_Female: no positive results

Structure (SMILES): Cc1cc(C)c(N)cc1C
- Potency (TD50_Rat_Note: TD50 is harmonic mean of more than one positive test, TargetSites_Rat_Female: liver, lung): 33.6 mg/kg/day
- Potency (TD50_Rat_Note: no positive results are statistically significant): 98.5 mg/kg/day

Structure (SMILES): CCCCCCCCCCCCCCCC(=O)CC(=O)CCCCCCCCCCCCCCC
- outcome [1]: inactive

Structure (SMILES): CCCCN(CCCCO)N=O
- Potency (TD50_Rat_Note: TD50 is harmonic mean of more than one positive test, harmonic mean of TD50 includes a value for upper 99% confidence li, TargetSites_Rat_Female: urinary bladder): 0.457 mg/kg/day

Structure (SMILES): Nc1ccccc1N
- Potency: 248 mg/kg/day

Structure (SMILES): CCOP(=S)(OCC)Oc1nc(Cl)c(Cl)cc1Cl
- outcome [1]: inactive; no positive results

Structure (SMILES): O=[N+]([O-])c1ccc(Nc2ccc(Nc3ccccc3)c(S(=O)(=O)O)c2)c([N+](=O)[O-])c1
- Potency (TargetSites_Rat_Female: kidney): 1710 mg/kg/day

Structure (SMILES): C[C@@H]1Cc2c(Cl)cc(C(=O)N[C@@H](Cc3ccccc3)C(=O)O)c(O)c2C(=O)O1
- Potency (TD50_Rat_Note: TD50 is harmonic mean of more than one positive test, TargetSites_Rat_Female: kidney, mammary gland): 0.136 mg/kg/day

Structure (SMILES): NC(=O)N/N=C/c1ccco1
- outcome [1]: inactive

Structure (SMILES): Cc1cc(O)c(C(C)(C)C)cc1Sc1cc(C(C)(C)C)c(O)cc1C
- outcome [1]: inactive; no positive results

Structure (SMILES): CN(C)N
- outcome [1]: inactive; no positive results

Structure (SMILES): Cc1cccc(N=Nc2ccc(N(C)C)cc2)c1
- Potency (TD50_Rat_Note: TD50 is harmonic mean of more than one positive test): 3.28 mg/kg/day

Structure (SMILES): Oc1cccc(O)c1
- outcome [1]: inactive; no positive results

Structure (SMILES): CC(=O)Nc1ccc(S(=O)(=O)O)c2cc(S(=O)(=O)O)c(N=Nc3ccc(N=Nc4ccc(S(=O)(=O)O)cc4)c4ccc(S(=O)(=O)O)cc34)c(O)c12
- outcome [1]: inactive; no positive results

Structure (SMILES): CCC1(CC)C(=O)N=C(O)NC1=O
- Potency (TD50_Rat_Note: TD50 is harmonic mean of more than one positive test, TargetSites_Rat_Female: no positive results): 45.7 mg/kg/day

Structure (SMILES): CCC(Cl)CCC(Cl)C(Cl)CC(Cl)C(Cl)C(Cl)CCl (centres undefined)
- Potency (TD50_Rat_Note: TD50 is harmonic mean of more than one positive test, TD50_Rat_mmol was not calculated for this mixture, but Activiity S, TargetSites_Rat_Female: liver, thyroid gland): 222 mg/kg/day

Structure (SMILES): C=CC=O
- outcome [1]: inactive; no positive results

Structure (SMILES): O=C(Nc1cccc2c(=O)cc(-c3nn[nH]n3)oc12)c1ccc(OCCCCc2ccccc2)cc1
- outcome [1]: inactive; no positive results

Structure (SMILES): NC(Cc1ccc(O)c(O)c1)C(=O)O (centres undefined)
- outcome: inactive; no positive results

Structure (SMILES): Nc1ccc(O)c(N)c1
- outcome [1]: inactive; no positive results

Structure (SMILES): Nc1cccc(N)c1
- outcome: inactive; no positive results

Structure (SMILES): C=Cc1cccc[n+]1[O-]
- outcome [1]: inactive

Structure (SMILES): CCOC(=O)CC(SP(=O)(OC)OC)C(=O)OCC (centres undefined)
- outcome [1]: inactive; no positive results

Structure (SMILES): NC(=S)Nc1ccccc1
- outcome [1]: inactive; no positive results

Structure (SMILES): CN(N=O)c1ccc(F)cc1
- Potency: 0.255 mg/kg/day

Structure (SMILES): NCCc1ccc(O)c(O)c1
- outcome: inactive; no positive results

Structure (SMILES): O=[N+]([O-])c1ccc2c3c(cccc13)CC2
- Potency (TD50_Rat_Note: TD50 is harmonic mean of more than one positive test, TargetSites_Rat_Female: clitoral gland, ear Zymbals gland, lung, mammary gland): 8.67 mg/kg/day

Structure (SMILES): CCCN=[N+]([O-])CCC
- Potency (TD50_Rat_Note: harmonic mean of TD50 includes a value for upper 99% confidence limit from study with 100% tumor incidence but no lifeta): 0.000241 mg/kg/day

Structure (SMILES): Nc1c(F)c(N)c(F)c(F)c1F
- outcome: inactive; no positive results

Structure (SMILES): COc1ccc(CCN2CCC(Nc3nc4ccccc4n3Cc3ccc(F)cc3)CC2)cc1
- outcome [1]: inactive; no positive results

Structure (SMILES): O=C(O)CN(CCN(CC(=O)O)CC(=O)O)CC(=O)O
- outcome [1]: inactive; no positive results

Structure (SMILES): COc1ccc([N+](=O)[O-])cc1N=Nc1c(O)c(C(=O)Nc2cccc([N+](=O)[O-])c2)cc2ccccc12
- outcome [1]: inactive; no positive results

Structure (SMILES): O=[N+]([O-])c1c(Cl)c(Cl)c(Cl)c(Cl)c1Cl
- outcome [1]: inactive; no positive results

Structure (SMILES): CC/C(=C(/CC)c1ccc(O)cc1)c1ccc(O)cc1
- Potency (TD50_Rat_Note: TD50 is harmonic mean of more than one positive test, greater than ten-fold variation among TD50 values for positive res, TargetSites_Rat_Female: liver, pituitary gland): 0.223 mg/kg/day

Structure (SMILES): CC1CO1 (centres undefined)
- Potency (TD50_Rat_Note: TD50 is harmonic mean of more than one positive test, greater than ten-fold variation among TD50 values for positive res, TargetSites_Rat_Female: mammary gland, nasal cavity, stomach): 74.4 mg/kg/day

Structure (SMILES): CN(C)c1ccccc1
- Potency [1]: 125 mg/kg/day

Structure (SMILES): O[C@H]([C@H](O)[C@@H](O)CBr)[C@H](O)CBr
- Potency (TD50_Rat_Note: positive test results only by intraperitoneal or intravenous injection): 8.37 mg/kg/day

Structure (SMILES): CC(COc1ccc(C(C)(C)C)cc1)OS(=O)OCCCl (centres undefined)
- Potency (TD50_Rat_Note: TD50 is harmonic mean of more than one positive test, TargetSites_Rat_BothSexes: liver): 96.7 mg/kg/day

Structure (SMILES): NC(=O)c1cnccn1
- outcome [1]: inactive; no positive results

Structure (SMILES): CCCCCCCCS(=O)C(C)Cc1ccc2c(c1)OCO2 (centres undefined)
- outcome [1]: inactive; no positive results

Structure (SMILES): FC(F)(F)CCl
- Potency (TD50_Rat_Note: TD50 is harmonic mean of more than one positive test, TargetSites_Rat_Female: uterus): 87.3 mg/kg/day

Structure (SMILES): O=Cc1ccco1
- Potency [1]: 683 mg/kg/day

Structure (SMILES): COc1ccc(C(=O)Nc2c(Cl)cncc2Cl)cc1OC1CCCC1
- Potency (TD50_Rat_Note: TD50 is harmonic mean of more than one positive test, TargetSites_Rat_Female: nasal cavity): 1.54 mg/kg/day

Structure (SMILES): Nc1ccc(S(=O)(=O)c2ccc(N)cc2)cc1
- Potency [1]: 22.4 mg/kg/day
